In the supplement of paper PMC10307832:

Tests used:
Test in all cases: relative viability (nuclei count vs DMSO), 5 days (fraction); higher = more cells survive
IA-LM = system: IA-LM
Procedure, shortened: (§1)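 Lung cancer cell lines, seeded in 1536-well plates, were treated the following day by pin tool with a single drug or with five library-drug doses (not always all listed) in √10 steps on top of a fixed anchor-drug dose. Cells were fixed and nuclei stained in one step after 5 days, and nuclei were counted. Relative viability is the nuclei count for treated wells divided by that for vehicle wells, reported as medians of duplicate plates.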

NCI-H1703 = system: NCI-H1703
Procedure, shortened: as §1

NCI-H1563 = system: NCI-H1563
Procedure, shortened: as §1

A549 = system: A549
Procedure, shortened: as §1

Calu-6 = system: Calu-6
Procedure, shortened: as §1

NCI-H1299 = system: NCI-H1299
Procedure, shortened: as §1

EBC-1 = system: EBC-1
Procedure, shortened: as §1

## Cc1cnc(-c2cnc(NCCNc3ccc(C#N)cn3)nc2-c2ccc(Cl)cc2Cl)[nH]1 + C[C@@H](Oc1cc(-c2cnn(C3CCNCC3)c2)cnc1N)c1c(Cl)ccc(F)c1Cl [Crizotinib] (partner 1 µM)
IA-LM; first compound 0.08 µM
  relative viability: 0.835
IA-LM; first compound 0.253 µM
  relative viability: 0.817
IA-LM; first compound 0.8 µM
  relative viability: 0.903
IA-LM; first compound 2.53 µM
  relative viability: 0.803
NCI-H1703; first compound 0.08 µM
  relative viability: 0.93
NCI-H1703; first compound 0.253 µM
  relative viability: 0.622
NCI-H1703; first compound 0.8 µM
  relative viability: 0.861
NCI-H1703; first compound 2.53 µM
  relative viability: 0.73
NCI-H1563; first compound 0.08 µM
  relative viability: 0.92
NCI-H1563; first compound 0.253 µM
  relative viability: 0.891
NCI-H1563; first compound 0.8 µM
  relative viability: 0.767
NCI-H1563; first compound 2.53 µM
  relative viability: 0.903
A549; first compound 0.08 µM
  relative viability: 0.784
A549; first compound 0.253 µM
  relative viability: 0.692
A549; first compound 0.8 µM
  relative viability: 0.964
A549; first compound 2.53 µM
  relative viability: 0.803
Calu-6; first compound 0.08 µM
  relative viability: 0.862
Calu-6; first compound 0.253 µM
  relative viability: 0.752
Calu-6; first compound 0.8 µM
  relative viability: 0.81
Calu-6; first compound 2.53 µM
  relative viability: 0.513
NCI-H1299; first compound 0.08 µM
  relative viability: 0.963
NCI-H1299; first compound 0.253 µM
  relative viability: 0.952
NCI-H1299; first compound 0.8 µM
  relative viability: 0.989
NCI-H1299; first compound 2.53 µM
  relative viability: 0.845
EBC-1; first compound 0.08 µM
  relative viability: 0.191
EBC-1; first compound 0.253 µM
  relative viability: 0.217
EBC-1; first compound 0.8 µM
  relative viability: 0.191
EBC-1; first compound 2.53 µM
  relative viability: 0.19

## Cc1cnc(-c2cnc(NCCNc3ccc(C#N)cn3)nc2-c2ccc(Cl)cc2Cl)[nH]1 + C[C@]1(O)C[C@@H](c2nc(-c3ccc4ccc(-c5ccccc5)nc4c3)c3c(N)nccn32)C1 [Linsitinib] (partner 1 µM)
IA-LM; first compound 0.08 µM
  relative viability: 0.604
IA-LM; first compound 0.253 µM
  relative viability: 0.257
IA-LM; first compound 0.8 µM
  relative viability: 0.744
IA-LM; first compound 2.53 µM
  relative viability: 0.542
NCI-H1703; first compound 0.08 µM
  relative viability: 0.986
NCI-H1703; first compound 0.253 µM
  relative viability: 0.631
NCI-H1703; first compound 0.8 µM
  relative viability: 0.884
NCI-H1703; first compound 2.53 µM
  relative viability: 1.21
NCI-H1563; first compound 0.08 µM
  relative viability: 1.33
NCI-H1563; first compound 0.253 µM
  relative viability: 1.2
NCI-H1563; first compound 0.8 µM
  relative viability: 1.22
NCI-H1563; first compound 2.53 µM
  relative viability: 1.1
A549; first compound 0.08 µM
  relative viability: 0.719
A549; first compound 0.253 µM
  relative viability: 0.477
A549; first compound 0.8 µM
  relative viability: 0.468
A549; first compound 2.53 µM
  relative viability: 0.548
Calu-6; first compound 0.08 µM
  relative viability: 1.01
Calu-6; first compound 0.253 µM
  relative viability: 0.888
Calu-6; first compound 2.53 µM
  relative viability: 0.971
NCI-H1299; first compound 0.08 µM
  relative viability: 0.882
NCI-H1299; first compound 0.253 µM
  relative viability: 0.967
NCI-H1299; first compound 0.8 µM
  relative viability: 0.503
NCI-H1299; first compound 2.53 µM
  relative viability: 0.861
EBC-1; first compound 0.08 µM
  relative viability: 0.913
EBC-1; first compound 0.253 µM
  relative viability: 0.713
EBC-1; first compound 0.8 µM
  relative viability: 0.859
EBC-1; first compound 2.53 µM
  relative viability: 0.819

## Cc1cnc(-c2cnc(NCCNc3ccc(C#N)cn3)nc2-c2ccc(Cl)cc2Cl)[nH]1 + Cc1nc(NC(=O)N2CCC[C@H]2C(N)=O)sc1-c1ccnc(C(C)(C)C(F)(F)F)c1 [Alpelisib] (partner 2 µM)
IA-LM; first compound 0.08 µM
  relative viability: 0.837
IA-LM; first compound 0.253 µM
  relative viability: 0.77
IA-LM; first compound 0.8 µM
  relative viability: 0.86
IA-LM; first compound 2.53 µM
  relative viability: 0.826
NCI-H1703; first compound 0.08 µM
  relative viability: 0.329
NCI-H1703; first compound 0.253 µM
  relative viability: 0.312
NCI-H1703; first compound 0.8 µM
  relative viability: 0.37
NCI-H1703; first compound 2.53 µM
  relative viability: 0.535
NCI-H1563; first compound 0.08 µM
  relative viability: 1.02
NCI-H1563; first compound 0.253 µM
  relative viability: 0.9
NCI-H1563; first compound 0.8 µM
  relative viability: 0.946
NCI-H1563; first compound 2.53 µM
  relative viability: 0.913
A549; first compound 0.08 µM
  relative viability: 0.853
A549; first compound 0.253 µM
  relative viability: 0.753
A549; first compound 0.8 µM
  relative viability: 0.818
A549; first compound 2.53 µM
  relative viability: 0.94
Calu-6; first compound 0.08 µM
  relative viability: 0.946
Calu-6; first compound 0.253 µM
  relative viability: 0.924
Calu-6; first compound 0.8 µM
  relative viability: 0.934
Calu-6; first compound 2.53 µM
  relative viability: 0.822
NCI-H1299; first compound 0.08 µM
  relative viability: 1.01
NCI-H1299; first compound 0.253 µM
  relative viability: 0.992
NCI-H1299; first compound 0.8 µM
  relative viability: 1.1
NCI-H1299; first compound 2.53 µM
  relative viability: 0.996
EBC-1; first compound 0.08 µM
  relative viability: 0.796
EBC-1; first compound 0.253 µM
  relative viability: 0.782
EBC-1; first compound 0.8 µM
  relative viability: 0.78
EBC-1; first compound 2.53 µM
  relative viability: 0.812

## O=C(O)CCCCC(CCSCc1ccccc1)SCc1ccccc1 (stereo not drawn) [CPI-613] + CC1(C)CCC(c2ccc(Cl)cc2)=C(CN2CCN(c3ccc(C(=O)NS(=O)(=O)c4ccc(N[C@H](CCN5CCOCC5)CSc5ccccc5)c(S(=O)(=O)C(F)(F)F)c4)cc3)CC2)C1 [Navitoclax] (partner 0.5 µM)
IA-LM; first compound 5 µM
  relative viability: 0.692
IA-LM; first compound 15.81 µM
  relative viability: 0.707
IA-LM; first compound 50 µM
  relative viability: 0.685
IA-LM; first compound 158.11 µM
  relative viability: 0.0974
IA-LM; first compound 500 µM
  relative viability: 0.0132
NCI-H1703; first compound 5 µM
  relative viability: 1.01
NCI-H1703; first compound 15.81 µM
  relative viability: 0.967
NCI-H1703; first compound 50 µM
  relative viability: 0.829
NCI-H1703; first compound 158.11 µM
  relative viability: 0.144
NCI-H1703; first compound 500 µM
  relative viability: 0.0899
A549; first compound 5 µM
  relative viability: 1.11
A549; first compound 15.81 µM
  relative viability: 0.977
A549; first compound 50 µM
  relative viability: 1.09
A549; first compound 158.11 µM
  relative viability: 0.308
A549; first compound 500 µM
  relative viability: 0.0559
Calu-6; first compound 5 µM
  relative viability: 0.72
Calu-6; first compound 15.81 µM
  relative viability: 0.744
Calu-6; first compound 50 µM
  relative viability: 0.595
Calu-6; first compound 158.11 µM
  relative viability: 0.107
Calu-6; first compound 500 µM
  relative viability: 0.0529
NCI-H1299; first compound 5 µM
  relative viability: 1.05
NCI-H1299; first compound 15.81 µM
  relative viability: 1.05
NCI-H1299; first compound 50 µM
  relative viability: 1.06
NCI-H1299; first compound 158.11 µM
  relative viability: 1.01
NCI-H1299; first compound 500 µM
  relative viability: 1.04
EBC-1; first compound 5 µM
  relative viability: 0.373
EBC-1; first compound 15.81 µM
  relative viability: 0.404
EBC-1; first compound 50 µM
  relative viability: 0.397
EBC-1; first compound 158.11 µM
  relative viability: 0.0793
EBC-1; first compound 500 µM
  relative viability: 0.0379
